Data: patent US20260373248A1, “DEGRADABLE PEPTOIDS” (Medici Therapeutics, Inc., priority 2023, published 2026)
Non-standard residues stand in square brackets, D forms with d. Residues, ends and D or L forms follow the SMILES beside them. *: point of attachment. Gly(N-(3-decanoyloxypropyl)) = CCCCCCCCCC(=O)OCCCNCC(=O)O; N(3-lauroyloxypropyl)Gly = CCCCCCCCCCCC(=O)OCCCNCC(=O)O; N(2-decanoyloxyethyl)Gly = CCCCCCCCCC(=O)OCCNCC(=O)O; N(3-imidazol-1-ylpropyl)Gly = O=C(O)CNCCCn1ccnc1; Gly(N-3-morpholinopropyl) = O=C(O)CNCCCN1CCOCC1; N(2-ethylhexyl)Gly = CCCCC(CC)CNCC(=O)O; Gly(N-dodecyl) = CCCCCCCCCCCCNCC(=O)O; N(CH(CH2OH)2)Gly = O=C(O)CNC(CO)CO; For = O=C*

What was measured:
firefly luciferase = test: In vivo firefly luciferase expression after intravenous injection of fLuc mRNA delivery vehicles (IVIS imaging); set-up: species or system female Balb/c mice; settings: for Total Flux (luciferase expression): fLuc mRNA, intravenous, Balb/c mice; for Total Flux: mice, 2.5 ug fLuc mRNA intravenously, 6 hours post-injection
How it was run: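 Female Balb/c mice (6-8 weeks) given 2.5 ug fLuc mRNA in Nutshells IV. At 6 hours, IP D-luciferin (30 mg/mL, 10 μL/g) under isoflurane; IVIS imaging 10 minutes later, then harvested organs imaged ex vivo. Read-out: total photon flux in regions of interest.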

[1] = Delivery vehicle size and polydispersity by dynamic light scattering; assay type: physicochemical
How it was run: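 LNPs made by microfluidic mixing of ethanolic peptoid/DSPC/cholesterol/DMG-PEG2000 (20:1.79:7.16:1.84 by weight) with mRNA in 10 mM citrate pH 5.0 at 1:3 by volume, then dialyzed overnight at 4 °C against tris-sucrose pH 7.4. Size and PDI read by dynamic light scattering in PBS.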

hEPO = test: Quantification of hEPO in serum after IV injection of mRNA (Human EPO ELISA); assay type: in vivo; settings: Balb/c mice, 2.5 μg mRNA IV, serum after 6 hours
How it was run: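 Balb/c mice received 2.5 μg mRNA encoding human EPO by IV injection; serum was collected after 6 hours. hEPO was measured by sandwich ELISA (biotin-conjugate, streptavidin-HRP, TMB, A450) against kit standards (mIU/mL) and an external standard (ng/mL), with values interpolated and corrected for dilution.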

mRNA = mRNA encapsulation (modified Quant-iT RiboGreen assay); assay type: physicochemical; settings: for mean percent encapsulation of RNA: RiboGreen, without vs with Triton X-100; for % Encapsulation: mRNA
How it was run: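 Peptoid nanoparticles were incubated with Triton X-100 for 10 min to release entrapped mRNA, then mixed with RiboGreen reagent and read by fluorescence (ex 485 nm/em 530 nm). Percent encapsulation was derived from the ratio of fluorescence without versus with Triton X-100.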

luciferase = test: Luciferase expression after local (intramuscular or subcutaneous) administration of mRNA; assay type: in vivo; settings: mRNA 0.01 mpk, 6 hours; for IM Flux: intramuscular; for SC Flux: subcutaneous
How it was run: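 Female Balb/c mice (6-8 weeks) received fLuc mRNA in aminolipidated peptoid Nutshells at 0.01 mpk subcutaneously or intramuscularly, or 0.1 mpk intratumorally. At 6 hours, anesthetized mice were given D-luciferin IP and imaged 10 minutes later; harvested organs were also imaged and total photon flux quantified in regions of interest.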

[2] = Peptoid quantity remaining in liver by HPLC-TOF mass spectrometry; assay type: in vivo; settings: liver homogenate
How it was run: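 Whole liver weighed; 20 mg tissue bead-homogenized in IPA/MeOH (8/2) with internal standard, centrifuged, supernatant run on BEH C8 HPLC-TOF MS. Peptoid concentration derived from linear calibration curve (0.2-50 μg/g) prepared in spiked untreated liver.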

[3] = DLS in PBS, peptoid:DSPC:Cholesterol:DMG-PEG2000 weight ratio 20:1.79:7.16:1.84, mRNA

Row | SMILES | PDI [1, 3] | Particle Size [1, 3] [nm] | Particle Size ([1]; formulation recipe D22) [nm] | mean percent encapsulation of RNA (mRNA) [%] | % Encapsulation (mRNA; formulation recipe D22) [%] | % of injected dose remaining in liver [2] [%] | Total Flux (luciferase expression) (firefly luciferase; formulation recipe D22) [p/s] | Total Flux (firefly luciferase) [p/s] | hEPO (hEPO) [ng/mL] | IM Flux (luciferase) [p/s] | SC Flux (luciferase) [p/s] | also measured
1 | CCCCCCCCCC(=O)OCCN(CC(=O)N(CCOC(=O)CCCCCCCCC)CC(=O)N(CC(=O)N(CCOC(=O)CCCCCCCCC)CC(=O)N(CCOC(=O)CCCCCCCCC)CC(=O)N(CC(N)=O)CC(CC)CCCC)CC(CC)CCCC)C(=O)CNCCCn1ccnc1 (centres unmarked) [Compound 79] (H-[N(3-imidazol-1-ylpropyl)Gly][N(2-decanoyloxyethyl)Gly][N(2-decanoyloxyethyl)Gly][N(2-ethylhexyl)Gly][N(2-decanoyloxyethyl)Gly][N(2-decanoyloxyethyl)Gly][N(2-ethylhexyl)Gly]-NH2) | 0.108 | 61.0 |  | 97.5 |  | 19.72 |  | 1.60E+09 | 320 | 1.31E+08 | 1.59E+08 | 
2 | CCCCCCCCCCCC(=O)OCCCN(CC(=O)N(CC(=O)N(CCCN1CCOCC1)CC(=O)N(CC(=O)N(CCCOC(=O)CCCCCCCCCCC)CC(=O)N(CC(N)=O)CC(CC)CCCC)CC(CC)CCCC)CC(CC)CCCC)C(=O)CN(C=O)CC(CC)CCCC (centres unmarked) [Compound 80] (For-[N(2-ethylhexyl)Gly][N(3-lauroyloxypropyl)Gly][N(2-ethylhexyl)Gly][Gly(N-3-morpholinopropyl)][N(2-ethylhexyl)Gly][N(3-lauroyloxypropyl)Gly][N(2-ethylhexyl)Gly]-NH2) | 0.109 | 78.1 | 78.1 | 65.7 | 65.7 | 13.58 | 3.74E+09 | 3.74E+09 | 481 | 2.20E+08 | 4.16E+08 | Total Flux (luciferase expression) (firefly luciferase; formulation recipe O1): 2.74E+09 p/s; Total Flux (luciferase expression) (firefly luciferase; formulation recipe O5): 2.71E+09 p/s; Particle Size ([1]; formulation recipe O1): 68.2 nm; Particle Size ([1]; formulation recipe O5): 68.5 nm; % Encapsulation (mRNA; formulation recipe O1): 80.5%; % Encapsulation (mRNA; formulation recipe O5): 82.6%
3 | CCCCCCCCCCCC(=O)OCCCN(CC(=O)N(CC(=O)N(CCCn1ccnc1)CC(=O)N(CC(=O)N(CCCOC(=O)CCCCCCCCCCC)CC(=O)N(CC(N)=O)CC(CC)CCCC)CC(CC)CCCC)CC(CC)CCCC)C(=O)CN(C=O)CC(CC)CCCC (centres unmarked) [Compound 82] (For-[N(2-ethylhexyl)Gly][N(3-lauroyloxypropyl)Gly][N(2-ethylhexyl)Gly][N(3-imidazol-1-ylpropyl)Gly][N(2-ethylhexyl)Gly][N(3-lauroyloxypropyl)Gly][N(2-ethylhexyl)Gly]-NH2) | 0.163 | 81.5 | 81.5 | 70.7 | 70.7 | 15.77 | 2.62E+09 | 2.62E+09 | 600 | 1.24E+08 | 1.41E+08 | Total Flux (luciferase expression) (firefly luciferase; formulation recipe F2): 4.10E+08 p/s; Total Flux (luciferase expression) (firefly luciferase; formulation recipe X29): 2.83E+09 p/s; Total Flux (luciferase expression) (firefly luciferase; formulation recipe X145): 5.70E+09 p/s; Particle Size ([1]; formulation recipe F2): 65.9 nm; Particle Size ([1]; formulation recipe X29): 72.1 nm; Particle Size ([1]; formulation recipe X145): 80.7 nm; % Encapsulation (mRNA; formulation recipe F2): 75.3%; % Encapsulation (mRNA; formulation recipe X29): 62.0%; % Encapsulation (mRNA; formulation recipe X145): 70.9%
4 | CCCCCCCCCC(=O)OCCCN(CC(N)=O)C(=O)CN(CCCOC(=O)CCCCCCCCC)C(=O)CN(CC(CC)CCCC)C(=O)CN(CCCOC(=O)CCCCCCCCC)C(=O)CN(CCCOC(=O)CCCCCCCCC)C(=O)CN(CC(CC)CCCC)C(=O)CNC(CO)CO (centres unmarked) [Compound 102] (H-[N(CH(CH2OH)2)Gly][N(2-ethylhexyl)Gly][Gly(N-(3-decanoyloxypropyl))][Gly(N-(3-decanoyloxypropyl))][N(2-ethylhexyl)Gly][Gly(N-(3-decanoyloxypropyl))][Gly(N-(3-decanoyloxypropyl))]-NH2) | 0.123 | 97.8 |  | 47.1 |  | 0.86 |  | 1.90E+09 | 207 | 2.12E+08 | 1.76E+08 | 

Now from value to compound, other results behind:

Row | PDI [1, 3] | Particle Size [1, 3] [nm] | Particle Size ([1]; formulation recipe D22) [nm] | mean percent encapsulation of RNA (mRNA) [%] | % Encapsulation (mRNA; formulation recipe D22) [%] | % of injected dose remaining in liver [2] [%] | SMILES | Total Flux (luciferase expression) (firefly luciferase; formulation recipe D22) [p/s] | Total Flux (firefly luciferase) [p/s] | hEPO (hEPO) [ng/mL] | IM Flux (luciferase) [p/s] | SC Flux (luciferase) [p/s] | also measured
5 | 0.095 | 75.4 | 75.4 | 56.4 | 56.4 | 7.34 | CCCCCCCCCC(=O)OCCN(CC(=O)N(CCOC(=O)CCCCCCCCC)CC(=O)N(CC(=O)N(CCOC(=O)CCCCCCCCC)CC(=O)N(CCOC(=O)CCCCCCCCC)CC(=O)N(CC(N)=O)CC(CC)CCCC)CC(CC)CCCC)C(=O)CN(C=O)CCCN1CCOCC1 (centres unmarked) [Compound 76] (For-[Gly(N-3-morpholinopropyl)][N(2-decanoyloxyethyl)Gly][N(2-decanoyloxyethyl)Gly][N(2-ethylhexyl)Gly][N(2-decanoyloxyethyl)Gly][N(2-decanoyloxyethyl)Gly][N(2-ethylhexyl)Gly]-NH2) | 5.54E+09 | 5.54E+09 | 2140 | 1.70E+08 | 8.95E+07 | Total Flux (luciferase expression) (firefly luciferase; formulation recipe R1): 5.94E+08 p/s; Total Flux (luciferase expression) (firefly luciferase; formulation recipe R5): 1.00E+09 p/s; Total Flux (luciferase expression) (firefly luciferase; formulation recipe R6): 2.28E+09 p/s; Total Flux (luciferase expression) (firefly luciferase; formulation recipe R7): 4.00E+09 p/s; Particle Size ([1]; formulation recipe R1): 66.0 nm; Particle Size ([1]; formulation recipe R5): 67.2 nm; Particle Size ([1]; formulation recipe R6): 74.4 nm; Particle Size ([1]; formulation recipe R7): 75.3 nm; % Encapsulation (mRNA; formulation recipe R1): 82.7%; % Encapsulation (mRNA; formulation recipe R5): 88.1%; % Encapsulation (mRNA; formulation recipe R6): 87.6%; % Encapsulation (mRNA; formulation recipe R7): 79.9%
6 | 0.118 | 73.1 |  | 7.4 |  | 16.59 | CCCCCCCCCCCCN(C=O)CC(=O)N(CCCOC(=O)CCCCCCCCC)CC(=O)N(CC(=O)N(CCCN1CCOCC1)CC(=O)N(CC(=O)N(CCCOC(=O)CCCCCCCCC)CC(=O)N(CCCCCCCCCCCC)CC(N)=O)CC(CC)CCCC)CC(CC)CCCC (centres unmarked) [Compound 88] (For-[Gly(N-dodecyl)][Gly(N-(3-decanoyloxypropyl))][N(2-ethylhexyl)Gly][Gly(N-3-morpholinopropyl)][N(2-ethylhexyl)Gly][Gly(N-(3-decanoyloxypropyl))][Gly(N-dodecyl)]-NH2) |  | 3.77E+08 | 109 | 4.29E+07 | 6.88E+07 | Total Flux (luciferase expression) (firefly luciferase; formulation recipe F2): 1.59E+09 p/s; Particle Size ([1]; formulation recipe F2): 72.4 nm; % Encapsulation (mRNA; formulation recipe F2): 71.8%
7 | 0.103 | 109.3 |  | 68.4 |  | 19.76 | CCCCCCCCCCCC(=O)OCCCN(CC(=O)N(CC(=O)N(CC(=O)N(CCCn1ccnc1)CC(=O)N(CC(=O)N(CC(=O)N(CCCOC(=O)CCCCCCCCCCC)CC(=O)N(CC(N)=O)CC(CC)CCCC)Cc1ccco1)CC(CC)CCCC)CC(CC)CCCC)Cc1ccco1)C(=O)CN(C=O)CC(CC)CCCC (centres unmarked) [Compound 100] |  | 2.32E+08 | 59.4 | 4.86E+07 | 6.16E+07 | 
